# Test results as given in US20170145005A1, “KINASE INHIBITOR” (THE UNIVERSITY OF TOKYO, priority 2014, published 2017).
# Key:
# [1] = tested on: MiaPaca-2; test: Growth inhibitory activity on human pancreatic cancer cell lines (Example 2, WST-8); assay type: cell-based; conditions: Homo sapiens, MIA PaCa-2; cultured for 96 hours, 2000 cells/well
# Description: (§1) Two thousand cells of human pancreatic cancer cells lines (L3.6pl, MiaPaca-2, PANC-1, PCI35, PCI66) were seeded in a medium volume of 100 μL in each well of a 96-well microtiter plate. The medium was removed after 18 hours, and 100 μL/well of medium containing the test compound was added. Culture was continued for 72 or 96 hours. The medium containing the test compound was removed, and 100 μL/well of medium containing 10% WST-8 (Dojindo Laboratories Cell Counting kit-8) was added. After culturing for one hour, the OD 450 nm absorbance was measured, and the cell growth inhibitory activity was calculated. Furthermore, RPMI-1640 medium (Sigma) was used as the medium with 10% fetal calf serum (Invitrogen), 50 U/mL penicillin G (Sigma), and 50 μg/mL streptomycin (Sigma) added. The cell lines were cultured at 37° C. in a carbon dioxide incubator with a carbon dioxide concentration of 5%.
# (§2) Tables 3 and 4 show the results of compound evaluation when cultured for 96 hours.
# [2] = tested on: PCI35; test: as above; assay type: cell-based; conditions: cultured for 96 hours, 2000 cells/well
# Description: as §1, §2
# [3] = tested on: PCI66; test: as above; assay type: cell-based; conditions: cultured for 96 hours, 2000 cells/well
# Description: as §1, §2
# [4] = tested on: PCI66 cells; test: Animal study: subcutaneous PCI66 tumor in nude mice; assay type: in vivo, BALB/c nu/nu mice; conditions: 30 mg/kg intraperitoneal, once a day for five days then two days off, three cycles, from day 14 after tumor injection
# Description: PCI66 cells, which are human pancreatic cancer cells, were suspended in Hanks balanced salt solution in a concentration of 2×10^7 cells/mL, and 100 μL of the cell suspension was injected subcutaneously to the backs of BALB/c nu/nu mice (SLC, Shizuoka, Japan). Drug administration was begun 14 days after tumor injection. The drug was administered once a day for five days intraperitoneally, then withheld for two days. This cycle was repeated three times. The tumor volume was calculated by the following formula.
# Tumor volume(cm^3)=[maximum diameter](cm)×[minimum diameter]^2(cm)/2
# [5] = target: PIM-3 kinase (Homo sapiens, UniProt Q86V86); test: Measurement of PIM-3 kinase inhibitory activity (fluorescent substrate peptide, capillary electrophoresis); assay type: biochemical; conditions: 30 μM ATP, 2 hours at room temperature
# Description: 1.5 μM of fluorescent substrate peptide (FAM-AKRRRLSSLRA-COOH), 30 μM of ATP, and 0.0833 ng/μL of PIM-3 kinase were incubated with a compound for 2 hours at room temperature, and the Pim-3 kinase activity was measured. The reaction was quantified by separating the substrate and phosphorylation reaction product by capillary electrophoresis (using a Perkin-Elmer EZ reader II) based on the difference in their charges. The results are shown below in Tables 1 and 2.
# [6] = tested on: PANC-1; test: Growth inhibitory activity on human pancreatic cancer cell lines (Example 4, WST-8); assay type: cell-based; conditions: Example 4: 72 hours, 3000 cells/well
# Description: (§3) Three thousand cells of human pancreatic cancer cell lines (L3.6pl, MiaPaca-2, PANC-1, PCI35, and PCI66) were seeded in a medium volume of 90 μL in each well of a 96-well microtiter plate. After 24 hours, 10 μL/well of medium containing the test compound was added. Culture was continued for 72 hours, and 10 μL/well of WST-8 (Dojindo Laboratories Cell Counting kit-8) was added. After culturing for 2 hours, the OD 450 nm absorbance was measured, and the cell growth inhibitory effect was calculated. The cell lines were cultured in a carbon dioxide incubator with a carbon dioxide concentration of 5%.
# [7] = tested on: L3.6pl; test: as above; assay type: cell-based; conditions: Example 4: 72 hours, 3000 cells/well
# Description: as §3
# [8] = tested on: MiaPaca-2; test: as above; assay type: cell-based; conditions: MIA PaCa-2, Example 4: 72 hours, 3000 cells/well
# Description: as §3
# [9] = tested on: PCI35; test: as above; assay type: cell-based; conditions: Example 4: 72 hours, 3000 cells/well
# Description: as §3
# [10] = tested on: PCI66; test: as above; assay type: cell-based; conditions: Example 4: 72 hours, 3000 cells/well
# Description: as §3
IC50 [1],IC50 [2],IC50 [3],IC50 [5],IC50 [6],IC50 [7],IC50 [8],IC50 [9],IC50 [10],SMILES,tumor volume [4]
1.6 µM,1.8 µM,1.8 µM,0.0076 µM,–,–,–,–,–,"COc1ccc2c(c1C(C)N1CCNCC1)O/C(=C\c1n[nH]c3ncccc13)C2=O (centres unmarked) [Compound 6, (Z)-2-[(1H-pyrazolo[3,4-b]pyridin-3-yl)methylene]-6-methoxy-7-[1-(piperazin-1-yl)ethyl]benzofuran-3(2H)-one]",suppress an increase in tumor volume
–,–,–,0.00051 µM,8.1 µM,3.3 µM,2.9 µM,5.3 µM,4.2 µM,"COc1ccc2c(c1CN1CCC[C@H](N)C1)O/C(=C\c1n[nH]c3ncccc13)C2=O [Compound 32, (S,Z)-2-[(1H-pyrazolo[3,4-b]pyridin-3-yl)methylene]-7-[(3-aminopiperidin-1-yl)methyl]-6-methoxybenzofuran-3(2H)-one]",–
